Test results: patent US6890936B2, “Muscarinic antagonists” (Schering Corporation, priority 2002, dated 2005)

Assays:
Conditions in all cases: membranes from stably transfected CHO cells, 3H-QNB 100-200 pM, 25° C., 90 minutes
[1] = target: T1, cloned human M2 muscarinic receptor (Homo sapiens, UniProt P08172); experiment: Muscarinic binding activity, 3H-QNB displacement, M2
T1 sequence (P08172 1-466): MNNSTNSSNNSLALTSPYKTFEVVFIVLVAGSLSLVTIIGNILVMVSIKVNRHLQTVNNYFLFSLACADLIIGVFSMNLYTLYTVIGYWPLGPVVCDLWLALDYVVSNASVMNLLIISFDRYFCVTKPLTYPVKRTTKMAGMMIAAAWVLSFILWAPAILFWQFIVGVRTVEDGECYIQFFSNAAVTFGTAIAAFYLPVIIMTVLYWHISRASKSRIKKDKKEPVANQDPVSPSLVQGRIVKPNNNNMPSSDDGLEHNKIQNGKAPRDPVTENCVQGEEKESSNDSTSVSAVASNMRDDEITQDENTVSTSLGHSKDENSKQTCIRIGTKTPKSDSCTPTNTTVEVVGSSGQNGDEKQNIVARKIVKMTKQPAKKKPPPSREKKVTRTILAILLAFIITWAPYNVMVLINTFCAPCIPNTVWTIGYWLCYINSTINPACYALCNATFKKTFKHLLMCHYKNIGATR

[2] = target: T2, cloned human M1 muscarinic receptor (Homo sapiens, UniProt P11229); experiment: Muscarinic binding activity, 3H-QNB displacement, M1
T2 sequence (P11229 1-460): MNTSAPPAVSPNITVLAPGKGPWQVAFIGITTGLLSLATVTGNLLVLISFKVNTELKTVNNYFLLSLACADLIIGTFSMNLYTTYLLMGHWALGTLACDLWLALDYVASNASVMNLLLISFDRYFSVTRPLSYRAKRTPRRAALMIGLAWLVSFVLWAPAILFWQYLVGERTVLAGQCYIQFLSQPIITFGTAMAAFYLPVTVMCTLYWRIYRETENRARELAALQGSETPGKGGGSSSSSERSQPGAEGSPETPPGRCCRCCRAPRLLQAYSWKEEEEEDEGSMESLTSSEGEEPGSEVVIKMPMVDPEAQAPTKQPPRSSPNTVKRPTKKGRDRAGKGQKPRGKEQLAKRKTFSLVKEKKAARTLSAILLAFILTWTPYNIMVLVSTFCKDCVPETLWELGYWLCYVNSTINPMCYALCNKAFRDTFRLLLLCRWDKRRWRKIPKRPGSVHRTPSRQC

[3] = target: T3, cloned human M4 muscarinic receptor (Homo sapiens, UniProt P08173); experiment: Muscarinic binding activity, 3H-QNB displacement, M4
T3 sequence (P08173 1-479): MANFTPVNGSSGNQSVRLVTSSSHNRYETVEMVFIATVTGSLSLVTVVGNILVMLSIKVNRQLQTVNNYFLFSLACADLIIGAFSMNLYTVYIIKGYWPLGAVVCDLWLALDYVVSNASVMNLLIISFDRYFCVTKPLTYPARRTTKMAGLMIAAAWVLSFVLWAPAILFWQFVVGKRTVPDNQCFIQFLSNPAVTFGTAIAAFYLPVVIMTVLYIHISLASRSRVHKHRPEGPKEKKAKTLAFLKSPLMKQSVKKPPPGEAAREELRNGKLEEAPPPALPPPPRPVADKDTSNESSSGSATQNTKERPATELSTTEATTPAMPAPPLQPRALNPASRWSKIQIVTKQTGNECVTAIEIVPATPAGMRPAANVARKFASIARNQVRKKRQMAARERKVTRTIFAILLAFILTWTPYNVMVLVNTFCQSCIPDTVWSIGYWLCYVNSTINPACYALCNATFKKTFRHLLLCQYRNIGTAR

[4] = target: T4, cloned human M5 muscarinic receptor (Homo sapiens, UniProt P08912); experiment: Muscarinic binding activity, 3H-QNB displacement, M5
T4 sequence (P08912 1-532): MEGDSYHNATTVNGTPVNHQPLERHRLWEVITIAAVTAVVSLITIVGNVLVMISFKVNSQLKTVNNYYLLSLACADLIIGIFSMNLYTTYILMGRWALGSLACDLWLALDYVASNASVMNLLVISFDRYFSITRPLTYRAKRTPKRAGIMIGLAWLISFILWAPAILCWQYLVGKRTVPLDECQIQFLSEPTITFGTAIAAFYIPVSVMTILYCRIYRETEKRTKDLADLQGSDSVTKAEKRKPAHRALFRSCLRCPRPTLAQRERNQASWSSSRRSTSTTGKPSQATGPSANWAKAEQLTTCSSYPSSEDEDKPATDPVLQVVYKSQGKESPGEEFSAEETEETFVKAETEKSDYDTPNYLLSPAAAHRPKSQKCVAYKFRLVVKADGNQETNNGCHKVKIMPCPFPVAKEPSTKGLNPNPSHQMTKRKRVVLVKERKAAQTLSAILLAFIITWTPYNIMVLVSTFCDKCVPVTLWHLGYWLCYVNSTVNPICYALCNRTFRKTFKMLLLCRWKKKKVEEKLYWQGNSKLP

[5] = target: cloned human M3 muscarinic receptor (Homo sapiens, UniProt P20309); experiment: Muscarinic binding activity, 3H-QNB displacement, M3
Sequence of cloned human M3 muscarinic receptor (P20309 whole entry): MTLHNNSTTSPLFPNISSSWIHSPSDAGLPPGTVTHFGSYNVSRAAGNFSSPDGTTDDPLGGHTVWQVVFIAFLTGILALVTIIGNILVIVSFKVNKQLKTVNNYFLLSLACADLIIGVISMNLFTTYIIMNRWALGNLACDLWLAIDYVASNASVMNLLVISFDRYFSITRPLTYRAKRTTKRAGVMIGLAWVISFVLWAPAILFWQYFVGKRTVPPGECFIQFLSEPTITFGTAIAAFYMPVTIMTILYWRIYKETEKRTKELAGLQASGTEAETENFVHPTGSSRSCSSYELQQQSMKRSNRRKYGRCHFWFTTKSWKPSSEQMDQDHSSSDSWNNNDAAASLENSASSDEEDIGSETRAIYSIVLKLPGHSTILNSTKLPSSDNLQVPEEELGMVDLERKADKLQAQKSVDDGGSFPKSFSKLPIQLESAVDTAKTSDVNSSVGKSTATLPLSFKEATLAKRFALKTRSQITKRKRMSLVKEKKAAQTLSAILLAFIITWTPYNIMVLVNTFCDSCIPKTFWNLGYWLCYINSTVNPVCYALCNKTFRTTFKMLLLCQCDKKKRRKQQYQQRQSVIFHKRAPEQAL

Row | Compound | Ki [1] [nM] | Ki [2] [nM] | Ki [3] [nM] | Ki [4] [nM] | Ki [5] [nM]
1 | Cc1cccc(C)c1C(=O)N1CCC(N2CCC3(CC2)C(c2ccc(OC(C)C)cc2)C3(Cl)Cl)CC1 (stereo not shown) [Compound 17] | > 1900 | > 1200 |  |  | 
2 | Cc1c(Cl)cccc1C(=O)N1CCC(N2CCC3(CC2)CC3c2ccc(OC(C)C)cc2)CC1 (stereo not shown) [Compound 7] | > 1380 | > 900 | > 1000 | > 1500 | > 1000
3 | Cc1c(Cl)cccc1C(=O)N1CCC(N2CCC3(CC2)C(c2ccc(OC(C)C)cc2)C3(Cl)Cl)CC1 (stereo not shown) [Compound 2] | > 1400 | 982 |  |  | 
4 | CC(C)Oc1ccc(C2C(Cl)(Cl)C23CCN(C2CCN(C(=O)c4cccc5c(Br)cccc45)CC2)CC3)cc1 (stereo not shown) [Compound 14] | > 1900 | > 1200 |  |  | 
5 | Cc1cccc(C(=O)N2CCC(N3CCC4(CC3)C(c3ccc(OC(C)C)cc3)C4(Cl)Cl)CC2)c1Cl (stereo not shown) [Compound 1] | > 1400 | > 990 | > 1000 | 891 | > 1000
6 | CC(C)Oc1ccc(C2C(Cl)(Cl)C23CCN(C2CCN(C(=O)c4cccc(Cl)c4Cl)CC2)CC3)cc1 (stereo not shown) [Compound 3] | > 1440 | > 996 | > 1000 | > 1500 | > 1000
7 | CC(C)Oc1ccc(C2C(Cl)(Cl)C23CCN(C2CCN(C(=O)c4cccc(Cl)c4N)CC2)CC3)cc1 (stereo not shown) [Compound 5] | 1390 | > 990 | > 1000 | 786 | > 1000
8 | CC(C)Oc1ccc(C2CC23CCN(C2CCN(C(=O)c4cccc(Cl)c4N)CC2)CC3)cc1 (stereo not shown) [Compound 9] | 490 | > 900 | > 1000 | > 1500 | > 1000
9 | CC(C)Oc1ccc(C2C(Cl)(Cl)C23CCN(C2CCN(C(=O)c4cccc(F)c4N)CC2)CC3)cc1 (stereo not shown) [Compound 6] | 1200 | > 990 | > 1000 | 42 | > 1000
10 | CC(C)Oc1ccc(C2CC23CCN(C2CCN(C(=O)c4cccc(Cl)c4Cl)CC2)CC3)cc1 (stereo not shown) [Compound 8] | 607 | 819 | > 1000 | > 1500 | > 1000
11 | CC(C)Oc1ccc(C2C(Cl)(Cl)C23CCN(C2CCN(C(=O)c4ccc(F)c5ccccc45)CC2)CC3)cc1 (stereo not shown) [Compound 13] | > 1900 | > 1200 |  |  | 
12 | CC(C)Oc1ccc(C2C(Cl)(Cl)C23CCN(C2CCN(S(=O)(=O)c4cccc5ccccc45)CC2)CC3)cc1 (stereo not shown) [Compound 16] | 1840 | > 1200 |  |  | 

Continued, values first:

Row | Ki [1] [nM] | Ki [2] [nM] | Ki [3] [nM] | Ki [4] [nM] | Ki [5] [nM] | Compound
13 | 77 | > 990 | > 1000 | 96 | > 1000 | Cc1cccc(C(=O)N2CCC(N3CCC4(CC3)C(c3ccc(OC(C)C)cc3)C4(Cl)Cl)CC2)c1N (stereo not shown) [Compound 4]
14 | 481 | > 1200 |  |  |  | CCCS(=O)(=O)N1CCC(N2CCC3(CC2)C(c2ccc(OC(C)C)cc2)C3(Cl)Cl)CC1 (stereo not shown) [Compound 15]
15 | 49 | 600 | 151 | 619 | 691 | CC(C)Oc1ccc(C2(C)CC23CCN(C2CCN(C(=O)c4cccc(Cl)c4N)CC2)CC3)cc1 (stereo not shown) [Compound 11]
16 | 149 | 1010 | 261 | 995 | > 1200 | CC(C)Oc1ccc(C2(C)CC23CCN(C2CCN(C(=O)c4cccc(Cl)c4Cl)CC2)CC3)cc1 (stereo not shown) [Compound 10]
17 | 113 | 744 | 272 | 1210 | > 1200 | Cc1c(Cl)cccc1C(=O)N1CCC(N2CCC3(CC2)CC3(C)c2ccc(OC(C)C)cc2)CC1 (stereo not shown) [Compound 12]
